According to ChEMBL document CHEMBL5120844, “Discovery of novel non-steroidal selective glucocorticoid receptor modulators by structure- and IGN-based virtual screening, structural optimization, and biological evaluation” (Eur J Med Chem, 2022):
Each block holds one compound with its values, some of them ahead of it. Active and inactive are the calls of the source. No cut-off for these calls is given here.

Columns and labels:
HeLa = test: Inhibition of NF-kappaB transcriptional activity in human HeLa cells transfected with NF-kappaB-Luc at 10 uM by dual-luciferase reporter gene assay relative to control; format: cell-based
[1] = Inhibition of NF-kappaB transcriptional activity in human HeLa cells transfected with NF-kappaB-Luc by dual-luciferase reporter gene assay; format: cell-based
NIH3T3 = test: Cytotoxicity against mouse 3T3 cells assessed as reduction in cell viability after 24 hrs by MTT assay; format: toxicity, cell-based; conditions: nih3t3, 24 h
RAW264.7 [2] = test: Anti-inflammatory activity against mouse RAW264.7 cells assessed as reduction in LPS-induced COX-2 mRNA expression level preincubated for 1 hr followed by LPS addition and measured after 16 hrs by qRT-PCR analysis; format: functional, cell-based; conditions: time 17.0 hrs
RAW264.7 [3] = test: Anti-inflammatory activity against mouse RAW264.7 cells assessed as reduction in LPS-induced IL-6 mRNA expression level preincubated for 1 hr followed by LPS addition and measured after 16 hrs by qRT-PCR analysis; format: functional, cell-based; conditions: time 17.0 hrs
RAW264.7 [4] = test: Anti-inflammatory activity against mouse RAW264.7 cells assessed as reduction in LPS-induced IL-1beta mRNA expression level preincubated for 1 hr followed by LPS addition and measured after 16 hrs by qRT-PCR analysis; format: functional, cell-based; conditions: time 17.0 hrs
MG-63 [5] = test: Induction of osteoporosis in human MG-63 cells assessed as decrease in OPG mRNA expression level at 10 uM by qRT-PCR analysis; format: functional, cell-based
MG-63 [6] = test: Induction of osteoporosis in human MG-63 cells assessed as decrease in RANKL mRNA expression level at 10 uM by qRT-PCR analysis; format: functional, cell-based
A549 = test: Anti-inflammatory activity against human A549 cells assessed as reduction in TNFalpha induced IL-1beta mRNA expression level by qRT-PCR analysis; format: functional, cell-based
RAW264.7 [7] = test: Anti-inflammatory activity against mouse RAW264.7 cells assessed as reduction in LPS-induced […] mRNA expression level preincubated for 1 hr followed by LPS addition and measured after 16 hrs by qRT-PCR analysis; format: functional, cell-based; conditions: time 17.0 hrs
[8] = target: T1, Progesterone receptor (Homo sapiens) (UniProt P06401); test: Agonist activity at progesterone receptor (unknown origin) expressed in PC3 cells co-transfected with ARR3tk-luciferase/Renilla at 10 to 25 uM incubated for 16 hrs by luciferase reporter gene assay; format: cell-based; conditions: PC-3, filed as agonist, dose 10-25 µM
T1 sequence (whole entry): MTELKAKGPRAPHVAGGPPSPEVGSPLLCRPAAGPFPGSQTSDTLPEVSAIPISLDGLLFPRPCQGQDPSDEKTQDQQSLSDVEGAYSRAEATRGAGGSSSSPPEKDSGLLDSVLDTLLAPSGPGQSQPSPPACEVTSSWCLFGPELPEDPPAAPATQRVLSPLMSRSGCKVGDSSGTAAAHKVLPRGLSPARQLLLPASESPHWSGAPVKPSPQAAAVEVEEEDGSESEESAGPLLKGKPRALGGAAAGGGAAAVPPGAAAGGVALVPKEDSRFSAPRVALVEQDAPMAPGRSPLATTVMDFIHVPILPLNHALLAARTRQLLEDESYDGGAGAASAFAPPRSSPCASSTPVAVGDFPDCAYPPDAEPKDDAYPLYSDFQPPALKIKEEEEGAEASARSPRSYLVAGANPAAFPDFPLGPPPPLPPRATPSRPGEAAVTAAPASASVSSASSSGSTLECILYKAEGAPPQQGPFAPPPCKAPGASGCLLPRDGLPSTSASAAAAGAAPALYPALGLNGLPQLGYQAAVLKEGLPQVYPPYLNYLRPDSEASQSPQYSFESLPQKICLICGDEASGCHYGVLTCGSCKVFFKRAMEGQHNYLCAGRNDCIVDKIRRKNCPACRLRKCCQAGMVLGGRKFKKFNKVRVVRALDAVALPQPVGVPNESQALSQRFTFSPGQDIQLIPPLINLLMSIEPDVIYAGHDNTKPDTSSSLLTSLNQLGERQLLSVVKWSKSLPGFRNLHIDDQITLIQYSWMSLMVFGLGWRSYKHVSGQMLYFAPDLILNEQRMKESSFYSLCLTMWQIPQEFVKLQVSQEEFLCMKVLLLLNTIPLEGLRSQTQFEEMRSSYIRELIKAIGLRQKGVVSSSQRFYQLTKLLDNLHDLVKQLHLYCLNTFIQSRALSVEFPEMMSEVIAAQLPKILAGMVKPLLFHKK

RAW264.7 [9] = test: Anti-inflammatory activity against mouse RAW264.7 cells assessed as inhibition of LPS-induced NO production at 25 uM incubated for 16 hrs by Greiss reagent assay; format: functional, cell-based
[10] = target: T2, Mineralocorticoid receptor (Homo sapiens) (UniProt P08235); test: Agonist activity at mineralocorticoid receptor (unknown origin) expressed in HEK293T cells co-transfected with pGL4.36[luc2P MMTV Hygro]/Renilla at 10 to 25 uM incubated for 16 hrs by luciferase reporter gene assay; format: cell-based; conditions: filed as agonist, dose 10-25 µM
T2 sequence (whole entry): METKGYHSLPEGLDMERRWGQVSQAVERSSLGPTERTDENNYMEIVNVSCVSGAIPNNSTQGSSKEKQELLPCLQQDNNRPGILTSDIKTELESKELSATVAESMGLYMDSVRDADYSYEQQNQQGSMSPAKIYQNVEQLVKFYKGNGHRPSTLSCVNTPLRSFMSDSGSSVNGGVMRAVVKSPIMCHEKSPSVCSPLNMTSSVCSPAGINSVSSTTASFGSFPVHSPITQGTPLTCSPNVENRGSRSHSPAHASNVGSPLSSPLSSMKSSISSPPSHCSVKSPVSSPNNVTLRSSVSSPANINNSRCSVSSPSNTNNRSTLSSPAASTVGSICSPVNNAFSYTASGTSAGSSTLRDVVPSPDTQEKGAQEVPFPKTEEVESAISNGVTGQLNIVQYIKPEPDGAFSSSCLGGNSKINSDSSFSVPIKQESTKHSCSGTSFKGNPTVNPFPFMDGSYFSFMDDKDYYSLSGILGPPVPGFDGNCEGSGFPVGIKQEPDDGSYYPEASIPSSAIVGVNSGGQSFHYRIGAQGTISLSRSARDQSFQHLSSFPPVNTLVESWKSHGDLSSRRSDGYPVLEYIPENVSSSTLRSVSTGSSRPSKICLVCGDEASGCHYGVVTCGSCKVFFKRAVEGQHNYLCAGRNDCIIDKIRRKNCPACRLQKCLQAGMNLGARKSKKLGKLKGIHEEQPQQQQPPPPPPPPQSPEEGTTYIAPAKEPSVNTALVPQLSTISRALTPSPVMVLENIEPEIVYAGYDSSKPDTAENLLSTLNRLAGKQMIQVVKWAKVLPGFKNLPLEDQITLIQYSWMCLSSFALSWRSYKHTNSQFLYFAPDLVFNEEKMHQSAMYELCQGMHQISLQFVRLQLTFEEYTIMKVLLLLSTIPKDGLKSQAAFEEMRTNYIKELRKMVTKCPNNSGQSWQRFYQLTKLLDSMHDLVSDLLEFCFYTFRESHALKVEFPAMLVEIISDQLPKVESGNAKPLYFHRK

[11] = target: T3, Glucocorticoid receptor (Homo sapiens) (UniProt P04150); test: Binding affinity to recombinant human GST-tagged glucocorticoid receptor ligand binding domain at 10 uM by TR-FRET assay relative to control; conditions: filed as modulator
T3 sequence (whole entry): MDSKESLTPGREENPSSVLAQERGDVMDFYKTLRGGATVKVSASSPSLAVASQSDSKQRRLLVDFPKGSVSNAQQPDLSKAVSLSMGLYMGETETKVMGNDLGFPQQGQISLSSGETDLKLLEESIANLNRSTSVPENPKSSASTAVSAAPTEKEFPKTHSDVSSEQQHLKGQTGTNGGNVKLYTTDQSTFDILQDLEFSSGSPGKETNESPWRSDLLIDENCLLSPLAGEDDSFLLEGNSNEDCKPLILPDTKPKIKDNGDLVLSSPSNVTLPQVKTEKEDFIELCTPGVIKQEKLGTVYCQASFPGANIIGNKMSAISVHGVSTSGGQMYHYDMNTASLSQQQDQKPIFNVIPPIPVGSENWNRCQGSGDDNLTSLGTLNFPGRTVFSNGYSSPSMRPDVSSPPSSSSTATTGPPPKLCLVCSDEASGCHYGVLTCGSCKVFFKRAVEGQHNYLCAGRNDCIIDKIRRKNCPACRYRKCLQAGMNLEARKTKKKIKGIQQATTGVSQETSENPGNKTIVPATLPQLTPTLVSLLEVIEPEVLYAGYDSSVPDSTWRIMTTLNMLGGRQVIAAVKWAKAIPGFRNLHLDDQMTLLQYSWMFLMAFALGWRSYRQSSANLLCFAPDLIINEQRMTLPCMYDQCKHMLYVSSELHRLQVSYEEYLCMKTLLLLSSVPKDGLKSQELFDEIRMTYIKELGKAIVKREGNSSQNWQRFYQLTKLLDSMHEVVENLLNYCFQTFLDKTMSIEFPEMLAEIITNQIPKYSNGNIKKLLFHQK

Glucocorticoid receptor = target: T4, Glucocorticoid receptor (Homo sapiens, UniProt P04150); test: (§1) Binding affinity to recombinant human GST-tagged glucocorticoid receptor ligand binding domain by TR-FRET assay relative to control
T4 sequence (P04150 whole entry): T3 sequence (whole entry)

[12] = target: T3, Glucocorticoid receptor (Homo sapiens); test: as §1; conditions: filed as modulator, DDE = dose-dependent effect
RAW264.7 [13] = test: Cytotoxicity against mouse RAW264.7 cells assessed as reduction in cell viability at 25 uM incubated for 48 hrs by MTT assay; format: toxicity, cell-based; conditions: raw264.7, 48 h

SMILES: CC(NC(=O)c1ccc(CN2CCc3ccccc3C2)cc1)c1ccccc1 (configuration not stated)
inhibition (HeLa): 49.1%

IC50 [1]: 3.8 µM
SMILES: C[C@@H](NC(=O)c1ccc(Cn2c(=S)[nH]c3ccsc3c2=O)cc1)c1ccccc1
Activity (NIH3T3): Non-Toxic | Activity (RAW264.7 [2]): Active | Activity (RAW264.7 [3]): Active | Activity (RAW264.7 [4]): Active

IC50 [1]: 18.3 µM
SMILES: CC(NC(=O)c1ccc(/C=C2/Sc3ccccc3NC2=O)cc1)c1ccc2c(c1)OCCO2 (configuration not stated)
inhibition (HeLa): 67%

IC50 [1]: 0.99 µM
SMILES: O=C(c1ccc(Cn2c(=S)[nH]c3ccsc3c2=O)cc1)N1CCc2ccccc2C1
inhibition (HeLa): 106%

SMILES: CC(NC(=O)c1ccc(CN2CC(=O)N3CSC[C@@H]3C2=O)cc1)c1ccccc1 (some centres not stated)
inhibition (HeLa): 34.1%

IC50 [1]: 1.92 µM
SMILES: C[C@H](NC(=O)c1ccc(Cn2c(=S)[nH]c3ccsc3c2=O)cc1)c1ccccc1
Activity (NIH3T3): Non-Toxic | Activity (RAW264.7 [2]): Active | Activity (RAW264.7 [3]): Active | Activity (RAW264.7 [4]): Active

SMILES: Cn1c(=O)n(C)c2cc(NC(=O)c3ccc(CN4CCc5ccccc5C4)cc3)ccc21
inhibition (HeLa): 10.6%

IC50 [1]: 1.07 µM
SMILES: COc1ccccc1Nc1nc(C(=O)N(CC(=O)NC2CC2)Cc2ccccc2)cs1
inhibition (HeLa): 99.9%

SMILES: CC(C)[C@H](NC(=O)C(C)(F)F)[C@H](Oc1ccc2c(cnn2-c2ccc(=O)n(C)c2)c1)c1ccccc1
Activity (MG-63 [5]): Toxic | Activity (MG-63 [6]): Non-Toxic

IC50 [1]: 7.38 µM
SMILES: COc1ccc(CNC(=O)c2ccc(Cn3c(=S)[nH]c4ccsc4c3=O)cc2)cc1
inhibition (HeLa): 93.1%

SMILES: O=C(c1ccc2c(=O)n(Cc3ccc(Cl)cc3)c(=S)[nH]c2c1)N(CCO)Cc1ccccc1
inhibition (HeLa): 75.8%

IC50 [1]: 6.61 µM
SMILES: O=C(Nc1ccccc1C(=O)NCc1cccnc1)c1ccc(CN2CCc3ccccc3C2)cc1
inhibition (HeLa): 89%

SMILES: Cc1ccc(S(=O)(=O)NCc2ccc(C(=O)NC(C)c3ccccc3)cc2)cc1 (configuration not stated)
inhibition (HeLa): 51.3%

SMILES: O=C(c1ccc(Cn2c(=S)[nH]c3ccc(Br)cc3c2=O)cc1)N1CCN(c2cccc(Cl)c2)CC1
inhibition (HeLa): 54.1%

Activity [8]: Active | Activity [10]: Active
SMILES: C[C@@H]1C[C@H]2[C@@H]3CCC4=CC(=O)C=C[C@]4(C)[C@@]3(F)[C@@H](O)C[C@]2(C)[C@@]1(O)C(=O)CO
Activity (A549): Active | Activity (RAW264.7 [7]): Active | Activity (MG-63 [5]): Toxic | Activity (MG-63 [6]): Non-Toxic | Activity (RAW264.7 [4]): Active | inhibition (RAW264.7 [9]): Active

IC50 [1]: 2.32 µM | Activity [11]: < 60% | IC50 (Glucocorticoid receptor): 2.05 µM | Activity [12]: Dde
SMILES: CC(NC(=O)c1ccc(Cn2c(=S)[nH]c3ccsc3c2=O)cc1)c1ccccc1 (configuration not stated)
Activity (A549): Active | Activity (MG-63 [5]): Toxic | Activity (RAW264.7 [2]): Active | Activity (RAW264.7 [3]): Active | inhibition (HeLa): 86.9% | Activity (MG-63 [6]): Non-Toxic | Activity (RAW264.7 [4]): Active | inhibition (RAW264.7 [9]): Active | Activity (RAW264.7 [13]): Non-Toxic

IC50 [1]: 5.14 µM
SMILES: CC(NC(=O)c1ccc(Cn2c(=S)[nH]c3ccsc3c2=O)cc1)c1ccc2c(c1)OCO2 (configuration not stated)
inhibition (HeLa): 94.6%

SMILES: O=C(NCc1cccnc1)c1ccc(Cn2c(=S)[nH]c3ccsc3c2=O)cc1
inhibition (HeLa): 76%
